The values that follow come from PubChem BioAssay AID1996.

In brackets after ≈: the same amount, converted by molar mass.

What is called solubility (kinetic) is solubility judged after dilution from a stock solution rather than from solid.

The conditions of the series: buffer; pH 7.4; 200.0 µM.
In turn, `COc1ccc(NC(=O)COC(=O)CCc2nc3ccccc3c(=O)[nH]2)cc1Cl` returned a kinetic solubility of 59.7 µg/mL (≈ 144 µM). As for `CCCCCCCn1c(=O)c(C(=O)OC)c(N)c2ccccc21`, the kinetic solubility is below 0.3 µg/mL. Next, `CCC(=O)Nc1ccc(NCc2cccs2)cc1`: above 39.1 µg/mL; `Cc1ccc(-c2c(C(=O)O)c3ccccc3[nH]c2=O)cc1`: above 41.9 µg/mL; `CN(C)c1ccc(CC2C(=O)Nc3ccccc32)cc1` (configuration not stated): 37.3 µg/mL (≈ 140 µM). The value for `COc1ccc(NC(=S)Nc2cccc(C(F)(F)F)c2)c(C)c1` was 8 µg/mL (≈ 23.5 µM); that for `Cc1cccnc1Nc1nc(-c2ccccc2)cs1` was 7.6 µg/mL (≈ 28.4 µM).

`CCOC(=O)CN1C(=O)SC(Nc2ccc(C)cc2)C1=O` (configuration not stated) returned a kinetic solubility above 46.3 µg/mL. Compound `Cc1ccc(C(=O)NCC(C)NC(=O)c2ccc(C)c(C)c2)cc1C` (configuration not stated) showed a kinetic solubility of 3.4 µg/mL (≈ 10 µM). Next, `COc1cc(NC(=O)C(Cc2ccccc2)n2cccc2)cc(OC)c1` (configuration not stated): 16.3 µg/mL (≈ 46.5 µM); `Cc1nsc2nc3c(F)c(F)c(F)c(F)c3cc12`: 4.4 µg/mL (≈ 16.2 µM). `Cc1ccc(C(=O)OCC(=O)NCc2cccs2)s1`: the solubility (kinetic) was above 44.3 µg/mL. On to `Cc1ccc(NC(=O)C2CC(O)CN2C(=O)OCc2ccccc2)cc1C` (configuration not stated), for which the kinetic solubility was found to be 48.8 µg/mL (≈ 132 µM). Take `C=Cc1cccc(NC(=O)c2ccc(NC(=O)c3ccco3)cc2)c1`: the kinetic solubility came out at 3.1 µg/mL (≈ 9.33 µM). For `O=C(O)/C=C/C(=O)NCCc1cccc(Cl)c1`, the solubility (kinetic) was above 38.1 µg/mL. Next, `Cn1c(SCc2ccccc2Cl)nc2c1c(=O)[nH]c(=O)n2C`: 0.4 µg/mL (≈ 1.19 µM). The value for `CCN(C(=O)N1CCOCC1)c1ccccc1C` was 26 µg/mL (≈ 105 µM). For the compound `CCOC(=O)Cc1csc(NC(=O)CN2CCN(CC)CC2)n1`, the solubility (kinetic) turned out to be 3.8 µg/mL (≈ 11.2 µM). The value for `O=C(CCS(=O)(=O)c1ccccc1)NC1CCCCC1` was above 44.3 µg/mL. Next, `O=C(Cc1cccs1)Nc1ccccc1F`: above 35.3 µg/mL; `CCCCn1c(N)c(N(CCOC)C(=O)CN(C)CC(=O)Nc2ccc(Cl)c(Cl)c2)c(=O)[nH]c1=O`: above 79.4 µg/mL.

With `CCc1ccc(CN2CCC(CO)(CC3CCCCO3)CC2)o1` (configuration not stated), the solubility (kinetic) was 38.1 µg/mL (≈ 119 µM). The value for `COc1ccccc1NC(=O)c1ccccc1C(=O)N(C)Cc1ccccc1` was 1.3 µg/mL (≈ 3.47 µM); that for `CC(C)(C)c1ccc(Oc2ccc(NC(=O)c3ccco3)cn2)cc1` was below 0.4 µg/mL. In turn, `O=C(O)CSc1ncnc2sc3c(c12)CCCC3` gave a solubility (kinetic) above 42.1 µg/mL. The value for `Cc1ccnc(NC(=O)Cn2c(=O)oc3ccccc32)c1` was 10.9 µg/mL (≈ 38.5 µM); that for `Cc1ccc(C(=O)NCCOc2ccc(Cl)cc2)cc1` was 3.4 µg/mL (≈ 11.7 µM); that for `Cc1ccc(S(=O)(=O)N2CCC[C@H]2C(=O)NCc2ccccc2Cl)cc1` was above 58.9 µg/mL.

In the case of `Cc1c(C(=O)NCC2CCCO2)oc2c(Cl)cccc12` (configuration not stated), the kinetic solubility is above 44.1 µg/mL.

Compound `Cn1c(=O)c2ccccc2n2c(=S)[nH]nc12` registered a kinetic solubility above 34.8 µg/mL. The value for `Cc1ccc(NC(=O)C2CCCN2C(=O)Oc2ccccc2)c(C)c1` (configuration not stated) was above 50.8 µg/mL. Next, `Nc1nnc(SCC(=O)OCC(=O)NC2CCCCC2)s1`: above 49.6 µg/mL; `CCOC(=O)CNC(=S)N(Cc1ccccc1)Cc1ccccc1F`: 11.7 µg/mL (≈ 32.5 µM); `COc1ccc(Cl)cc1NC(=O)NCc1ccc2c(c1)OCO2`: below 0.4 µg/mL. Compound `O=C(O)c1ccc(NCc2cccnc2)c([N+](=O)[O-])c1` registered a kinetic solubility above 41 µg/mL. Next, `COc1ccc(NC(=O)Nc2nc(C)cc(C)n2)c(OC)c1`: above 45.3 µg/mL. Next, `O=C(c1cc2cc(C(F)(F)F)ccc2s1)N1CCOCC1`: above 47.3 µg/mL.

As for `CCc1ccc2c(CN3CCC(C(=O)OC)CC3)cc(=O)oc2c1`, the kinetic solubility was above 49.4 µg/mL.

The compound `Cc1ccc(NS(=O)(=O)c2ccc(C(=O)NCc3ccc(S(N)(=O)=O)cc3)cc2)cc1` yielded a kinetic solubility of 51.7 µg/mL (≈ 113 µM). As for `CN(C)c1nc(N(C)C)nc(N2CC(=O)N(c3ccccc3)C2=N)n1`, the kinetic solubility was 8.4 µg/mL (≈ 24.7 µM). Against the preceding compound, the solubility kinetic is about 6.2-fold lower. As to `O=C(NCCCN1CCOCC1)C(=O)NCCc1ccccc1`, the kinetic solubility was above 47.9 µg/mL. The value for `Cn1c(N)cc(-c2ccc(F)cc2)c(C#N)c1=O` was above 36.5 µg/mL; that for `Cc1ccc(-c2noc(=O)n2CC(=O)c2ccc(Cl)cc2)cc1` was below 0.4 µg/mL; that for `CCn1c(C)nnc1SCC(=O)Nc1ccc(C(C)=O)cc1` was above 47.8 µg/mL.

Turning to `Cc1cc(C(F)(F)F)c2c(N)c(C(=O)NC3CC3)sc2n1`, the kinetic solubility was above 47.3 µg/mL.

Take `COc1ccc(-c2nc(C)c(C(C)=O)n2O)cc1[N+](=O)[O-]`: the solubility (kinetic) was determined as 42.3 µg/mL (≈ 145 µM). `Cc1cc(NC(=O)CSc2nc3ccccc3cc2C#N)no1`: the solubility (kinetic) was determined as 2.9 µg/mL (≈ 8.94 µM). The value for `CC(=O)Nc1ccc(NC(=O)C2(C)CC2(Cl)Cl)cc1` (configuration not stated) was above 45.2 µg/mL.

In the case of `Cc1cccc(CC2S/C(=N/c3cccc(C)n3)NC2=O)c1` (configuration not stated), the solubility (kinetic) came out at 0.7 µg/mL (≈ 2.25 µM).

On to `O=C(Oc1ccc(C(=S)N2CCOCC2)cc1)c1ccc(F)cc1`, for which the kinetic solubility turned out to be 2.8 µg/mL (≈ 8.11 µM).

For the compound `CC(=O)c1c(C)[nH]c(C(=O)N2CCCC(C)C2)c1C` (configuration not stated), the kinetic solubility is above 39.4 µg/mL. Next, `CN(C)/C=N/c1nc(-c2ccc3ccccc3c2)cs1`: 16 µg/mL (≈ 56.9 µM).
